± gives the expanded uncertainty stated by the source.
Settings: 101.33 kPa, Liquid, transient hot wire

CCO [ethanol]
Settings	thermal conductivity [W/m/K]
276.51 K	0.1719 ± 0.0072
287.55 K	0.1677 ± 0.0071
297.25 K	0.1645 ± 0.0069
307.16 K	0.1617 ± 0.0068

CCOC(C)=O [ethyl acetate]
Settings	thermal conductivity [W/m/K]
249.13 K	0.1618 ± 0.0065
253.89 K	0.1602 ± 0.0064
260.17 K	0.1574 ± 0.0063
268.04 K	0.154 ± 0.0062
274.35 K	0.152 ± 0.0061
281.34 K	0.1491 ± 0.006
285.31 K	0.1472 ± 0.0059
290.42 K	0.1451 ± 0.0058
295.44 K	0.1429 ± 0.0058
298.52 K	0.1414 ± 0.0057
303.53 K	0.1396 ± 0.0056
308.44 K	0.1378 ± 0.0055
313.45 K	0.1361 ± 0.0055
318.4 K	0.1346 ± 0.0054
323.25 K	0.1324 ± 0.0053
328.39 K	0.1308 ± 0.0053
333.37 K	0.1288 ± 0.0052
338.34 K	0.1273 ± 0.0051
343.27 K	0.1257 ± 0.0051
345.43 K	0.1245 ± 0.005
348.46 K	0.1239 ± 0.005

CCCC(=O)OCC [ethyl butanoate]
Settings	thermal conductivity [W/m/K]
268.57 K	0.1471 ± 0.0059
273.61 K	0.1446 ± 0.0058
278.63 K	0.1423 ± 0.0057
283.58 K	0.1408 ± 0.0057
288.65 K	0.1385 ± 0.0056
293.58 K	0.1374 ± 0.0055
298.53 K	0.1357 ± 0.0055
303.56 K	0.1339 ± 0.0054
308.67 K	0.132 ± 0.0053
313.49 K	0.1311 ± 0.0053
318.61 K	0.1293 ± 0.0052
323.42 K	0.1282 ± 0.0052
328.48 K	0.1264 ± 0.0051
333.46 K	0.1249 ± 0.005
338.5 K	0.1234 ± 0.005
343.51 K	0.1214 ± 0.0049
348.54 K	0.12 ± 0.0048
353.36 K	0.1192 ± 0.0048
358.57 K	0.1173 ± 0.0047
363.52 K	0.1163 ± 0.0047

CCCCCC(=O)OCC [ethyl hexanoate]
Settings	thermal conductivity [W/m/K]
254.29 K	0.1474 ± 0.0059
264.08 K	0.1447 ± 0.0058
274.02 K	0.1429 ± 0.0058
283.95 K	0.1398 ± 0.0056
293.74 K	0.1375 ± 0.0055
303.7 K	0.1353 ± 0.0054
313.76 K	0.1323 ± 0.0053
323.67 K	0.13 ± 0.0052
333.63 K	0.1268 ± 0.0051
343.56 K	0.1242 ± 0.005
353.55 K	0.1216 ± 0.0049
363.41 K	0.1191 ± 0.0048
373.4 K	0.1172 ± 0.0047
383.37 K	0.1153 ± 0.0046

CCCCC(=O)OCC [ethyl pentanoate]
Settings	thermal conductivity [W/m/K]
249.21 K	0.1501 ± 0.006
263.9 K	0.1458 ± 0.0059
273.5 K	0.1433 ± 0.0058
283.8 K	0.1396 ± 0.0056
288.74 K	0.1389 ± 0.0056
289.42 K	0.1377 ± 0.0055
293.69 K	0.1369 ± 0.0055
298.79 K	0.1357 ± 0.0055
303.69 K	0.1344 ± 0.0054
308.61 K	0.1328 ± 0.0053
313.74 K	0.1314 ± 0.0053
318.49 K	0.1301 ± 0.0052
323.74 K	0.1282 ± 0.0052
328.62 K	0.1268 ± 0.0051
333.51 K	0.1256 ± 0.0051
338.47 K	0.1241 ± 0.005
343.55 K	0.1228 ± 0.0049
348.55 K	0.1216 ± 0.0049
353.49 K	0.1201 ± 0.0048
358.46 K	0.1184 ± 0.0048
363.57 K	0.1177 ± 0.0047

CCOC(=O)CC [ethyl propanoate]
Settings	thermal conductivity [W/m/K]
263.55 K	0.1547 ± 0.0062
268.41 K	0.1531 ± 0.0062
270.94 K	0.152 ± 0.0061
278.51 K	0.1474 ± 0.0059
283.51 K	0.1447 ± 0.0058
288.56 K	0.143 ± 0.0058
293.54 K	0.1408 ± 0.0057
296.36 K	0.1404 ± 0.0057
301.4 K	0.1384 ± 0.0056
306.51 K	0.1365 ± 0.0055
311.34 K	0.1348 ± 0.0054
316.45 K	0.1332 ± 0.0054
321.47 K	0.1314 ± 0.0053
326.44 K	0.13 ± 0.0052
331.53 K	0.128 ± 0.0052
336.4 K	0.1264 ± 0.0051
341.36 K	0.125 ± 0.005
346.42 K	0.1231 ± 0.005
351.35 K	0.1219 ± 0.0049
356.28 K	0.1208 ± 0.0049

O [water]
Settings	thermal conductivity [W/m/K]
299.55 K	0.613 ± 0.026
309.83 K	0.6313 ± 0.026
319.56 K	0.6399 ± 0.027
332.53 K	0.6555 ± 0.028
339.33 K	0.657 ± 0.028
349.41 K	0.6723 ± 0.028
